# Source: US20260308186A1, “STAT DEGRADERS AND USES THEREOF” (Recludix Pharma, Inc., priority 2023, published 2026)
# Legend:
# pSTAT6 = target: T1, pSTAT6 (Homo sapiens, UniProt P42226); assay: MSD-pSTAT-PBMC Assay, pSTAT6 (IL-4 stimulated PBMC); assay type: cell-based; settings: read-out: pSTAT6 IC50, compound 3 hrs, then 1 ng/mL IL-4 for 10 min, pY641-STAT6
# T1 construct: pY641-STAT6 MSD read-out
# T1 sequence (P42226 1-847): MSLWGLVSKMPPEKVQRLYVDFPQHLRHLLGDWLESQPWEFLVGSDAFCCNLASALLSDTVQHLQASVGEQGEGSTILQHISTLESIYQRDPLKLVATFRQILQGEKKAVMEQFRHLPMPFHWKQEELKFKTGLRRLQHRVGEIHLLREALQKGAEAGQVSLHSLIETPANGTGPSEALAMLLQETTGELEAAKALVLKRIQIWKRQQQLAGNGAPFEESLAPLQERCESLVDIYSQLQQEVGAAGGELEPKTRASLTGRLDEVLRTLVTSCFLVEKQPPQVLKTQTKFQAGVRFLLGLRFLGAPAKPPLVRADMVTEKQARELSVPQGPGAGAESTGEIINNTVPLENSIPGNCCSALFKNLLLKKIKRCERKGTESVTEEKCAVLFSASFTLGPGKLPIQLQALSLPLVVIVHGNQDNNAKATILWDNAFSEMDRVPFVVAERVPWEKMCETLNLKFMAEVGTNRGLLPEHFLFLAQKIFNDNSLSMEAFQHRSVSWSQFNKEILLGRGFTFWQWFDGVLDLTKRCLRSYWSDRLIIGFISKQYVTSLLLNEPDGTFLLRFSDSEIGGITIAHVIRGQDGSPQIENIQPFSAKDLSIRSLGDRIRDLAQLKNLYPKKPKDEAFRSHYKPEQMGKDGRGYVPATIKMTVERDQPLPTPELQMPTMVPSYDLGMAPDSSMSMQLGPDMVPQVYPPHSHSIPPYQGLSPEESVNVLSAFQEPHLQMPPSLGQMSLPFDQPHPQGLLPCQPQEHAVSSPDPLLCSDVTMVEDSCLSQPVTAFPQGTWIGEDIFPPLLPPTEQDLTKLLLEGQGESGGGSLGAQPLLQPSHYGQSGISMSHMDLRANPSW
# In short: (§1)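 Human PBMC were recovered overnight, treated 3 h with compound, then stimulated for 10 min with 10 ng/mL IL-6 (pSTAT3) or 1 ng/mL IL-4 (pSTAT6). Lysates were read by MSD sandwich immunoassay, with total STAT capture and pY705-STAT3 or pY641-STAT6 detection. Signal minus unstimulated wells was normalized to DMSO, and IC50 came from a variable-slope fit.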
# STAT3 = target: T2, STAT3 (Homo sapiens, UniProt P40763); assay: STAT3 Fluorescence Polarization (FP) Assay; assay type: binding
# T2 construct: Recombinant STAT3 protein (STAT3(G127-1722))
# T2 sequence (P40763 127-722 limits assumed): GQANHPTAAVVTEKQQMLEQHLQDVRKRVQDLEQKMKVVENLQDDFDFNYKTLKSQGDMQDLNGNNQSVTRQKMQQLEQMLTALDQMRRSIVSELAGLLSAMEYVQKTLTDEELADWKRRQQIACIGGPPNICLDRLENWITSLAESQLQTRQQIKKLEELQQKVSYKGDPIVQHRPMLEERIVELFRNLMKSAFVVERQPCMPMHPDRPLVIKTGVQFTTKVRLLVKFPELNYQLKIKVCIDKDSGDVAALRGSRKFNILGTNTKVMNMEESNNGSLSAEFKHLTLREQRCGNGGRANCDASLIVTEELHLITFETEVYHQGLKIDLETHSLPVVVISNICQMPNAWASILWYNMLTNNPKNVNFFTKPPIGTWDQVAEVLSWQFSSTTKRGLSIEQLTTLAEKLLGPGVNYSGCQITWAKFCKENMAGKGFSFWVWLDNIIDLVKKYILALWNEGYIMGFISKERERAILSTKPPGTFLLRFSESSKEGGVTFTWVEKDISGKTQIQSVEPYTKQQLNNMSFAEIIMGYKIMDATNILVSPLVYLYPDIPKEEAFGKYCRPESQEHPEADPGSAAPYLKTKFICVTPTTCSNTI
# pSTAT3 = target: T3, pSTAT3 (Homo sapiens, UniProt P40763); assay: MSD-pSTAT-PBMC Assay, pSTAT3 (IL-6 stimulated PBMC); assay type: cell-based; settings: read-out: pSTAT3 IC50, compound 3 hrs, then 10 ng/mL IL-6 for 10 min, pY705-STAT3
# T3 construct: pY705-STAT3 MSD read-out
# T3 sequence (P40763 whole entry): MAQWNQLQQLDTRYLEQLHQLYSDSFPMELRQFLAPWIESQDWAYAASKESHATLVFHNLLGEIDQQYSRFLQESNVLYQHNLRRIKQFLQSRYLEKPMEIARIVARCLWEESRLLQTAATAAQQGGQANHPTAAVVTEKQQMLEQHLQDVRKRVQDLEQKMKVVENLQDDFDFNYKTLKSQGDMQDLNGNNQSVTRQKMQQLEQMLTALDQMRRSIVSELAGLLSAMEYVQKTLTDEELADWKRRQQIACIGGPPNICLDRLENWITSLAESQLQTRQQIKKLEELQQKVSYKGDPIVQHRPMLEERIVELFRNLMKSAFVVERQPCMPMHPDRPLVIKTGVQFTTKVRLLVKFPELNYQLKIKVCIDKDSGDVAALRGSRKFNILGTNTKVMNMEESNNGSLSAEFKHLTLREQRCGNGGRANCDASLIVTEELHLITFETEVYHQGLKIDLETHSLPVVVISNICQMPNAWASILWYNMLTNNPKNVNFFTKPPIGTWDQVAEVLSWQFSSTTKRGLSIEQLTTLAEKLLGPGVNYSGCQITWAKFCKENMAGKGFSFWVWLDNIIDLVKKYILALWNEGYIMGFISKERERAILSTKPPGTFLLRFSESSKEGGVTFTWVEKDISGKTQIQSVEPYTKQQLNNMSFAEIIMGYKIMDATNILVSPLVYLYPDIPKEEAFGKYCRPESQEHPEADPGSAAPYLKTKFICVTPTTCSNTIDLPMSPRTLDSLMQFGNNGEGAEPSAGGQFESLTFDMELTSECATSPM
# In short: as §1
# STAT6 = target: T4, STAT6 (Homo sapiens, UniProt P42226); assay: STAT6 Fluorescence Polarization (FP) Assay; assay type: binding
# T4 construct: Recombinant STAT6 protein (STAT6(W123-T658))
# T4 sequence (P42226 123-658): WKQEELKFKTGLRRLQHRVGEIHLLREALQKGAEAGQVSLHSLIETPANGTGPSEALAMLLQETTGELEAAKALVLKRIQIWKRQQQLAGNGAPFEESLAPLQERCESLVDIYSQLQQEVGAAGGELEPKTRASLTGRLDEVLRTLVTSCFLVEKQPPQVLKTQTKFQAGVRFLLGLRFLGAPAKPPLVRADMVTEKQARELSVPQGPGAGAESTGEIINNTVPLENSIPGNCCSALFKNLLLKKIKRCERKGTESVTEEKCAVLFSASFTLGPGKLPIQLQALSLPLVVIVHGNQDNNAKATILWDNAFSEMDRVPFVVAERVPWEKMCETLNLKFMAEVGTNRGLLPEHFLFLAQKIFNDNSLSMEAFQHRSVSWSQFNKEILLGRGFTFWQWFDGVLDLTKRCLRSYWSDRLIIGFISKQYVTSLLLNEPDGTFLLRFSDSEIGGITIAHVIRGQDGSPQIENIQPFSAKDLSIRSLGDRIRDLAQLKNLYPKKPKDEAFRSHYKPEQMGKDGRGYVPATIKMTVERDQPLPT
# In short: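 STAT6(W123-T658) at 250 nM plus 2 nM 5-FAM phosphotyrosine peptide probe in HEPES pH 7.4 buffer with 2 mM DTT, 1% DMSO final. Polarization read after 45 min at room temperature. IC50 from nonlinear regression of mP against log concentration.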
smiles,measurement,setting,value
"Cc1ccc2[nH]nc(C(=O)N3CC[C@H]4CC[C@@H](C(=O)NCCCCCCC#Cc5cccc6c5CN(C5CCC(=O)NC5=O)C6=O)N4C(=O)[C@@H](NC(=O)c4ccc5ccc(C(F)(F)P(=O)(O)O)cc5c4)C3)c2c1 (stereo partly drawn) [Compound 9, ((7-(((5S,8S,10aR)-8-((8-(2-(2,6-dioxopiperidin-3-yl)-1-oxoisoindolin-4-yl)oct-7-yn-1-yl)carbamoyl)-3-(5-methyl-1H-indazole-3-carbonyl)-6-oxodecahydropyrrolo[1,2-a][1,5]diazocin-5-yl)carbamoyl)naphthalen-2-yl)difluoromethyl)phosphonic acid]",IC50,pSTAT6,1 to 3 µM
same,IC50,STAT3,1 to 10 µM
same,IC50,pSTAT3,> 3 µM
same,IC50,STAT6,< 0.3 µM
